Source: patent publication US20120201824A1, “Compositions and Methods for Inhibiting an Oncogenic Protein to Enhance Immunogenicity” (priority 2008, published 2012)

Experiments:
CD274 mRNA = assay: RT-PCR for CD274 mRNA in ALK+ TCL cells; type: cell-based, human; settings: SUDHL-1 cells; rapamycin 300 nM, wortmannin 20 nM, U0126 15 μM, Jak3 inhibitor 1 μM
Experimental: Total RNA was isolated using RNeasy Mini kit (Qiagen), treated with DNase I (Invitrogen), and reverse-transcribed by using Thermoscript RT-PCR system (Invitrogen) with random hexamers as cDNA synthesis primers. The following primer pairs were used for the cDNA amplification: β-actin, 5'[…] ID NO: 1) and 5'[…] ID NO: 2); CD274, 5'[…] ID NO: 3) and 5'[…] ID NO: 4). PCR was performed by using Platium […] polymerase (Invitrogen) for 21 cycles comprised of the denaturation step for 20 seconds at 94° C., annealing for 30 seconds at 58° C. and elongation for 30 seconds at 72° C. The PCR products were visualized by ethium bromide staining in 1.5% agarose gel. […] Inhibitors of: […] Marzec et al., 2007, Oncogene 26: 813-821; Marzec et al., 2007, Oncogene 26: 5606-5614; Marzec et al., 2008, Cancer Res 68: 1083-1091). A mixture of four STAT3 or STAT5b specific siRNA or non-targeting siRNA (all purchased from Dharmacon) was introduced into cells at 100 nM by lipofection with the hew generation Lipofectamine (DMRIE-C; Invitrogen). The procedure was repeated after 24 hours and the cells were cultured for an additional 24 hours. The cells were harvested at one time point 48 hours after first transfection. Extend of the protein knock-down was examined by Flow Cytometry and RT-PCR.

CD274 protein = assay: Flow cytometry for cell-surface CD274 protein in ALK+ TCL cells; type: cell-based, human; settings: SUDHL-1 cells; rapamycin 300 nM, wortmannin 20 nM, U0126 15 μM, Jak3 inhibitor 1 μM
Experimental: All antibodies were purchased from BD Pharmingen. The stained cells were applied to the flow cytometer (FACSCalibur; Becton Dickinson), and 20,000 events were analyzed. Results of the cell staining are presented as histograms with cell number on the vertical axis and relative fluorescence on the logarithmic horizontal axis. […] Inhibitors of: […] Marzec et al., 2007, Oncogene 26: 813-821; Marzec et al., 2007, Oncogene 26: 5606-5614; Marzec et al., 2008, Cancer Res 68: 1083-1091). A mixture of four STAT3 or STAT5b specific siRNA or non-targeting siRNA (all purchased from Dharmacon) was introduced into cells at 100 nM by lipofection with the hew generation Lipofectamine (DMRIE-C; Invitrogen). The procedure was repeated after 24 hours and the cells were cultured for an additional 24 hours. The cells were harvested at one time point 48 hours after first transfection. Extend of the protein knock-down was examined by Flow Cytometry and RT-PCR.

In the case of `N#CC(=C(/N)Sc1ccccc1N)/C(C#N)=C(\N)Sc1ccccc1N` [U0126], the “CD274 expression on the mRNA level (RT-PCR)” value (CD274 mRNA) is reported as “no detectable impact” and the “CD274 expression on the protein level (flow cytometry)” value (CD274 protein) is reported as “no detectable impact”.
